Results: US8841325B2, “Immunomodulatory compounds for the restoration of vitamin D sensitivity in vitamin D resistant tumor cells” (Celgene Corporation, priority 2009, dated 2014)

Experiments:
[1] = test system: breast cancer cell lines; conditions: literature (Colston et al.); cited from earlier work
[2] = test system: MDA-MB-231 cells; test: PARP cleavage assay (Western blot); type: cell-based
Description: Cells were plated in 75 cm^2 flasks and cultured for 6 days with 1 μl/mL DMSO (control) or 1 μM 1-oxo-2-(2,6-dioxopiperidin-3-yl)-4-aminoisoindoline and 100 nM 1,25 D3, each alone or in combination. For each time point, medium was removed and cells were washed with ice-cold PBS. Cells were then lysed with RIPA buffer (1% NP40, 0.5% sodium deoxycholate, 0.1% SDS, PBS) and the lysate was centrifuged at 13000 rpm for 20 minutes at 4° C. The supernatant was collected and an aliquot taken for measuring protein concentration. The protein estimation was determined for each lysate using the Bio-Rad DC Protein Assay Kit according to the manufacturer's instructions. The protein extract was mixed with SDS (1/4), sonicated 10 seconds, and protein concentration was determined by Bradford assay.
SDS-polyacrylamide gel electrophoresis (SDS-PAGE) was run on a Mini Trans-Blot Module apparatus (Bio-Rad). The percentage of polyacrylamide/bis-acrylamide in the resolving gel in this experiment was 12% v/v. The following reagents were used for stacking gel: 0.67 mL 30% acrylamide/bis-acrylamide; 2.7 mL H2O; 0.5 mL 1M trizma; 0.01 mL 10% ammonium persulfate; and 0.04 mL SDS. The following reagents were used for resolving gel: 3.3 mL 30% acrylamide/bis-acrylamide; 4 mL H2O; 2.5 mL 1M trizma; 0.1 mL 10% ammonium persulfate; and 0.1 mL 10% SDS.
Once the resolving gel was prepared, polymerization was initiated by addition of 10 μl N′,N′,N′,N′-teramethylethylene-diamine (TEMED). Lysates were boiled for 5 minutes and chilled on ice then loaded into the stacking gel, with volumes adjusted so that equal amounts of protein were loaded. Rainbow colored markers (Sigma Aldrich) were also added in one well to monitor the electrophoretic solution. Electrophoresis was performed at 40 mA constant current for 1 to 2 hours in running buffer (10×25 mM trizma, 192 mM glycine, 0.1% SDS).
For western blotting, the proteins were transferred from the gel onto Hybond C-Super nitrocellulose membrane (Amersham International, U.K.) in a Mini Trans-Blot apparatus (Bio-Rad) according to the manufacturer's instructions. Transfer was performed at 100 V for 1.5 to 2 hours in transfer buffer (25 mM Tris base, 192 mM glycine, 20% methanol, pH 8.2). The nitrocellulose was blocked after 1 hour with milk solution (PBS 1×, 1% Tween 20, 1% Triton X100, 5% fat-free milk). The membrane was then stained for 1 hour with the primary antibodies Total-PARP and Cleaved-PARP in the milk solution. The membrane was washed with milk solution and stained with secondary antibody (anti-rabbit from Sigma Aldrich) for 1 hour. […] The membrane was then wrapper in cling-film and placed in a cassette and, in the dark, pieces of autography film (GRI) were placed over it and left for the desired time before being put through a developer.
Cells were lysed in RIPA buffer containing 1% NP40, 0.5% sodium deoxycholate, 0.1% SDS, PBS. Equal amounts of protein (20 μg per lane) were subjected to SDS-PAGE and transferred to nitrocellulose membranes. Membranes were blocked with 5% milk in 0.05% Tween-20/TBS and then incubated with the first antibody in 0.5% milk overnight. Membranes were then incubated with the secondary anti-mouse or anti-rabbit horseradish peroxidase conjugated antibody. Bands were visualised using the enhanced chemiluminescence Western blotting detection system (ECL, Amersham, N.J., USA). Densitometric analysis was performed using Adobe Photoshop CS2. Anti-cleaved PARP and anti-total PARP antibodies (New England biolab, Cell Signalling), were used at a dilution of 1/1000 and anti-rabbit (AbCam, UK), at a dilution of 1/5000.
Cells were also treated with 0.1% DMSO as a control. […] Cells treated with 0.1% DMSO were used as a control (day 0). Cell lysates were probed for cleaved-PARP(C-PARP) and total PARP (T-PARP). Data shown are representative of three identical experiments.

[3] = test system: MCF-7/VD^R cells; test: BCL-2 expression by immunoblotting, MCF-7/VD^R; type: cell-based; conditions: 1 μM lenalidomide and 100 nM 1,25-D3 alone or in combination, 6 days, FIG. 15
Description: Cells were also treated with 0.1% DMSO as a control. Whole cells extracts were prepared and analysed by immuoblotting BCL-2 antibody. β-actin was used as a loading control.
Cells were also treated with 0.1% DMSO a control. Whole proteins were extracted and probes for BCL-2. β-actin was used as a loading control.

[4] = test system: MCF-7/VD^R cells; test: Cell viability by neutral red assay, MCF-7/VD^R; type: cell-based; conditions: up to 6 days
Description: (§1) Non-treated cells were used as a control.
as §1

[5] = test system: MDA-MB-231 cells; test: Western blot of key signalling proteins (AKT, ERK1/2, VDR); type: cell-based; conditions: 1 μM lenalidomide co-treatment with 100 nM 1,25-D3, 6 days
Description: More particularly, FIG. 11 illustrates the effects of co-treatment lenalidomide/1, 25-D3 on expression of key signalling proteins in MDA-MB-231 cells. […] Cells were also treated with 0.1% DMSO as a control. Whole proteins were extracted and probed for total AKT (T-AKT), phosphor-AKT (P-AKT), total ERK1/2 (T-ERK1/2), phospho-ERK1/2 (P-ERK1/2), phosphor-p38 and total p38, VDR and b-actin as a house-keeping protein. Representative blots for the three experiments are shown.

[6] = single agent: 1 μM lenalidomide or 100 nM 1,25 D3 alone, up to 6 days

For `C=C1/C(=C\C=C2/CCC[C@]3(C)[C@@H]([C@H](C)CCCC(C)(C)O)CC[C@@H]23)C[C@@H](O)C[C@@H]1O` [1,25-D3, 1α,25-dihydroxyvitamin D3], the IC50 values [1] is listed as “in the nM region”, the PARP cleavage [2, 6] is listed as “no effect” and the PARP cleavage ([2]; single agent: 1 μM lenalidomide or 100 nM 1,25 D3 alone, up to 6 days, listed as vitamin D) is listed as “no PARP cleavage”.

For `Nc1cccc2c1CN(C1CCC(=O)NC1=O)C2=O` (centres unmarked) [Lenalidomide, 1-oxo-2-(2,6-dioxopiperidin-3-yl)-4-aminoisoindoline], the “effects on BCL-2 expression” value [3] was “no effects”, the PARP cleavage ([2]; 1 μM lenalidomide in combination with 100 nM 1,25 D3, up to 6 days) was “starts to be cleaved after 2 days of treatment” and the PARP cleavage ([2]; 1 μM lenalidomide in combination with 100 nM 1,25 D3, up to 6 days, listed as 1-oxo-2-(2,6-dioxopiperidin-3-yl)-4-aminoisoindoline) was “significant level of cleaved PARP”. The PARP cleavage [2, 6] was “no effect”, the PARP cleavage ([2]; single agent: 1 μM lenalidomide or 100 nM 1,25 D3 alone, up to 6 days, listed as 1-oxo-2-(2,6-dioxopiperidin-3-yl)-4-aminoisoindoline) was “no PARP cleavage” and the differences in viability ([4]; lenalidomide 0 μM up to 10 μM, FIG. 13, p>0.05) was “No significant differences”. The differences in viability ([4]; lenalidomide 0.01-1 μM alone or in combination with 1,25-D3 0-1000 nM, FIG. 14, p>0.05) was “No significant differences” and the “AKT and ERK1/2 activation and VDR protein expression” value [5] was “No Effect”.
